Target: Aβ42 peptide (Homo sapiens, UniProt P05067)
Test: ThT fluorescence assay for inhibition of Aβ42 fibrillation
Assay type: biochemical

Chain of Aβ42 peptide (P05067 672-713): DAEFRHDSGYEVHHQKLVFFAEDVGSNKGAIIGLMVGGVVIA

`O=[N+]([O-])c1ccc(/N=N/c2ccc3nc(-c4ccccc4)c(I)c(-c4ccccc4)c3c2)cc1` [Compound 1d, (E)-3-Iodo-6-((4-nitrophenyl)diazenyl)-2,4-diphenylquinoline] was tested, and the “% inhibition for Aβ aggregation” value (Aβ42 25 μM, compounds 25 μM, PBS, 37 °C, 24 h) was 75.2 ± 3.0% and the inhibition at 25 µM (read-out: % inhibition for Aβ aggregation, Aβ42 25 μM, compounds 25 μM, PBS, 37 °C, 24 h) was roughly 75%.

— PMC9055851 (RSC Advances, 2020)
